Earlier results on 1 molecule are cited in patent US7741050B2, “Identification of agonistic autoantibodies” (Max-Delbrueck-Centrum fuer Molkulare Medizin, priority 2002, dated 2010).

In the data set the target is T1, AT1 receptor of cultivated cardiomyocytes (Rattus norvegicus, UniProt P25095).
T1 construct: can stimulate the AT1 receptor of cultivated cardiomyocytes; endogenous in cells; host or cells: primary cultivated cardiomyocytes of newborn rats
T1 sequence (P25095 1-359): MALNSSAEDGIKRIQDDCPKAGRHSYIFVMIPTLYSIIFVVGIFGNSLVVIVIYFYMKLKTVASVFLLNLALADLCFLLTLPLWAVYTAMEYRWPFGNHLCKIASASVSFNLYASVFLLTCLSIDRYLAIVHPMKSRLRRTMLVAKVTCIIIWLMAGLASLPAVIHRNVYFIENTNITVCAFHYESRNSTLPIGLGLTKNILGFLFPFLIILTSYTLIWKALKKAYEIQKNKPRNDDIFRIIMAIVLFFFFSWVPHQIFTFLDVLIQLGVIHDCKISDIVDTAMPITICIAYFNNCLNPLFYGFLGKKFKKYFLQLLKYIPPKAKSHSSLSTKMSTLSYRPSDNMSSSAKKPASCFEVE
The note with it: Losartan 1 μM added to cardiomyocytes stimulated by antibodies of preeclamptic women; cited from earlier work.

Turning to `CCCCc1nc(Cl)c(CO)n1Cc1ccc(-c2ccccc2-c2nn[nH]n2)cc1` [Losartan], the beats per minute result is “reduced”.
